Data taken from patent US10570097B2, “Antimicrobial imidazolium compounds” (AGENCY FOR SCIENCE, TECHNOLOGY AND RESEARCH, priority 2014, dated 2020).

Assays:
E. coli [1] = assay: Minimum biocidal concentration / killing efficiency (24 h); type: cell-based, Escherichia coli
Experimental: (§1) To determine the minimum bacteriocidal concentration, the microbes were inoculated and prepared according to the procedure for MIC determination. […] The bacterial samples were taken out of each well after the aforementioned period, and subjected to a series of 10-fold dilutions. 20 uL of the diluted sample was then streaked across an agar plate, before incubation of the plate at 37° C. for 24 h. Colony forming units (CFU) were counted after overnight incubation, and the results were calculated according to the formula: [formula]

E. coli [2] = assay: Minimum inhibitory concentration by microdilution assay; type: cell-based, Escherichia coli (ATCC 25922); settings: E. coli, 37° C., 24 h
Experimental: (§2) Staphylococcus aureus (ATCC 6538, gram-positive), Escherichia coli (ATCC 25922, gram-negative), Pseudomonas aeruginosa (gram-negative), and Candida albicans (ATCC 10231, yeast) were used as representative microorganisms to challenge the antimicrobial functions of the imidazolium salts. All bacteria and yeast were stored frozen at −80° C., and were grown overnight at 37° C. in Tryptic Soy broth (TSB) prior to experiments. Yeast was grown overnight at 22° C. in Yeast Mold (YM) broth. Subsamples of these cultures were grown for 3 h further and diluted to give an optical density value of 0.07 at 600 nm, corresponding to 3×10^8 CFU mL^−1 (MacFarland's Standard).
(§3) The oligomer compounds were dissolved in PBS at a concentration of 1 mg mL^1 and the minimal inhibitory concentrations (MICs) were determined by microdilution assay. Typically, a 100 μL microbial solutions (containing 3×10^8 cells mL^−1) were added to 100 μL of PBS containing the test imidazolium salts (normally ranging from […] in serial two-fold dilutions) in each well of the 96-well microtiter plate. The plates were incubated at 37° C. for 24 h with shaking at 300 rpm, with monitoring at the 2, 4, 6, 8, and 24 h time points. […] Broth and PBS solution containing microbial cells alone were used as negative controls, and experiments were run in triplicates.

C. Albicans = assay: as above; type: cell-based, Candida albicans (ATCC 10231); settings: 24 h
Experimental: as §2, §3

S. aureus [3] = assay: Minimum biocidal concentration / killing efficiency (24 h); type: cell-based, Staphylococcus aureus
Experimental: as §1

[4] = Gelling properties in solvents (tube inversion test); type: physicochemical
Experimental: Gels were prepared by weighing the imidazolium oligomer compounds directly into 4 mL glass vials and subsequently adding a known weight or volume of the solvent. The vials containing both the imidazolium and the solvent were either vortexed or sonicated to ensure that the imidazolium was dissolved and dispersed thoroughly before being placed in a 4° C. fridge overnight. The tube inversion test method was used to examine gel formation in different solvents.

P. aeruginosa = assay: Minimum inhibitory concentration by microdilution assay; type: cell-based, Pseudomonas aeruginosa; settings: 37° C., 24 h
Experimental: as §2, §3

S. aureus [5] = assay: as above; type: cell-based, Staphylococcus aureus (ATCC 6538); settings: 37° C., 24 h
Experimental: as §2, §3

[6] = Critical micellar concentration (pyrene fluorescent probe); type: physicochemical; settings: FIG. 4, deionized water
Experimental: The CMC values of the oligomer compounds were determined in both deionised (DI) water and PBS, using a LS50B luminescence spectrometer (Perkin Elmer, United States) and employing pyrene as a fluorescent probe. A known weight of the oligomer compound was dissolved in either 2 mL of DI water or PBS in a 4 mL glass vial and serial dilutions were effected. 10 μL of pyrene stock solution in acetone (6.16×10^-5 M) was added to each vial containing 1 mL of a known concentration of the oligomer compound, and the acetone was then evaporated at room temperature. The solution was allowed to equilibrate overnight and the final concentration of pyrene in each vial was 6.16×10^-7 M. The excitation spectra of the solutions were scanned from 300 to 360 nm with an emission wavelength of 395 nm, and both the excitation and emission bandwidths were set at 2.5 nm. The intensity ratios ([…]/[…]) were plotted against polymer concentration. The CMC value was given by the intersection of the tangent to the curve at the inflection and the tangent of the points at low polymer concentrations.

E. coli [7] = assay: Time kill kinetics; type: cell-based, Escherichia coli; settings: two minutes; for % kill / Log reduction: E. coli, 4MIC
Experimental: Time kill studies of the soligome compounds against E. coli were also studied. The experimental setup for time kill kinetics was similar to the set up for MBC determination. The microbes were treated with oligomer compounds at 4MIC concentration, and samples were taken out of each well at 2 minutes. 500 μl of cell suspension was removed, rescued by a series of 10-fold dilutions with growth medium, and kept on ice until plating. For plating, 50 μl to 200 μl of the diluted samples was spread on growth medium agar plates and colonies were counted after overnight incubation at 37° C.

[8] = tested on: rat red blood cells (RBCs); assay: Hemolysis; type: cell-based; settings: lowest concentration that induces 10% or more hemolysis; rat RBCs, 1 h, 37° C.; maximum tested 100,000 ppm
Experimental: Before these materials can be used in systemic applications, selectivity of these materials for microbial cells over mammalian cells should also be considered. Such selectivity is often determined by observation of hemolysis. Hemolysis was performed in the following manner, fresh rat red blood cells (RBCs) were diluted with PBS buffer to give an RBC stock suspension (4 vol % blood cells). A 100 μL aliquot of RBC stock was added to a 96-well plate containing […] oligomer compound stock solutions of various concentrations (serial 2-fold dilution in PBS). After 1 h incubation at 37° C., The contents of each well was pipetted into a microcentrifuge tube and then centrifuged at 4000 rpm for 5 min. Hemolytic activity was determined as a function of hemoglobin release by measuring OD576 of […] of the supernatant. A control solution that contained only PBS was used as a reference for 0% hemolysis. 100% hemolysis was measured by adding 0.5% Triton-X to the RBCs. [formula] The selectivity of the materials was also further assessed, by calculating the selectivity indices (SI), a measure and a comparison of safety and efficacies of each oligomer compound. […] Herein, the more stringent control of HC10 value was chosen over the HC50 value often reported in literature.

[9] = tested on: 4 microbes (S. aureus, E. coli, P. aeruginosa, C. Albicans); assay: MIC over the 4 microbes tested (geometric mean); type: cell-based; settings: geometric mean of the MICs of the 4 microbes
Experimental: Staphylococcus aureus (ATCC 6538, gram-positive), Escherichia coli (ATCC 25922, gram-negative), Pseudomonas aeruginosa (gram-negative), and Candida albicans (ATCC 10231, yeast) were used as representative microorganisms to challenge the antimicrobial functions of the imidazolium salts. All bacteria and yeast were stored frozen at −80° C., and were grown overnight at 37° C. in Tryptic Soy broth (TSB) prior to experiments. Yeast was grown overnight at 22° C. in Yeast Mold (YM) broth. […] Typically, a 100 μL microbial solutions (containing 3×10^8 cells mL^−1) were added to 100 μL of PBS containing the test imidazolium salts (normally ranging from […] in serial two-fold dilutions) in each well of the 96-well microtiter plate. The plates were incubated at 37° C. for 24 h with shaking at 300 rpm, with monitoring at the 2, 4, 6, 8, and 24 h time points. […] Broth and PBS solution containing microbial cells alone were used as negative controls, and experiments were run in triplicates. The selectivity of the materials was also further assessed, by calculating the selectivity indices (SI), a measure and a comparison of safety and efficacies of each oligomer compound. […] Herein, the more stringent control of HC10 value was chosen over the HC50 value often reported in literature.

SMILES | % killing (E. coli [1]; 0.5 MIC) | Log reduction (E. coli [1]; 0.5 MIC) | % killing (E. coli [1]; 2 MIC) | Log reduction (E. coli [1]; 2 MIC) | % killing (E. coli [1]; MIC) | Log reduction (E. coli [1]; MIC) | MIC E. coli (E. coli [2]) | MIC C.A. (C. Albicans) | % killing (S. aureus [3]; 0.5 MIC) | Log reduction (S. aureus [3]; 0.5 MIC) | % killing (S. aureus [3]; 2 MIC) | Log reduction (S. aureus [3]; 2 MIC) | % killing (S. aureus [3]; MIC) | MIC P.A. (P. aeruginosa) | MIC S.A. (S. aureus [5]) | sharp point of inflection indicating the critical micellar concentrations [6] | % kill (E. coli [7]) | Log reduction (E. coli [7]) | HC10 [8] | MIC GM [9] | further results
CCCCCC[n+]1ccn(Cc2ccc(C[n+]3ccn(Cc4ccc(C[n+]5ccn(Cc6ccccc6Cn6cc[n+](Cc7ccc(Cn8cc[n+](Cc9ccc(Cn%10cc[n+](CCCCCC)c%10)cc9)c8)cc7)c6)c5)cc4)c3)cc2)c1.[Br-].[Br-].[Cl-].[Cl-].[Cl-].[Cl-] [Compound 1] | 97.692% | 1.48 ± 0.212 | >99.999% | 8.40 ± 0.403 | >99.999% | 7.53 ± 0.173 | 8 mg/L | 16 mg/L | 99.975% | 3.69 ± 0.335 | >99.999% | 7.28 ± 0.036 | 99.999% | 8 mg/L | 4 mg/L | not observed | 99.8% | 2.85 | >100000 ppm | 8 mg/L | Log reduction (S. aureus [3]; MIC): 5.35 ± 0.094; State in solvent ([4]; Acetone): Insoluble; State in solvent ([4]; Acetonitrile): Insoluble; Concentration to form gel ([4]; EtOH): (11 wt %); State in solvent ([4]; EtOH): Gel; State in solvent ([4]; Ethylene glycol): Solution; State in solvent ([4]; Glycerol): Solution; Concentration to form gel ([4]; nBuOH): (9.2 wt %); State in solvent ([4]; nBuOH): Gel; Concentration to form gel ([4]; nPrOH): (7.8 wt %); State in solvent ([4]; nPrOH): Gel
CCCCCCCC[n+]1ccn(Cc2ccc(C[n+]3ccn(Cc4ccc(C[n+]5ccn(Cc6ccccc6Cn6cc[n+](Cc7ccc(Cn8cc[n+](Cc9ccc(Cn%10cc[n+](CCCCCCCC)c%10)cc9)c8)cc7)c6)c5)cc4)c3)cc2)c1.[Br-].[Br-].[Cl-].[Cl-].[Cl-].[Cl-] [Compound 2] | 99.779% | 2.67 ± 0.128 | >99.999% | 7.19 ± 0.149 | >99.999% | 7.11 ± 0.123 | 8 mg/L | 16 mg/L | 98.03% | 1.71 ± 0.032 | >99.999% | 13.38 ± 0.337 | >99.999% | 16 mg/L | 4 mg/L | not observed | >99.9% | 3.11 | 12500 ppm | 9.51 mg/L | Log reduction (S. aureus [3]; MIC): 11.82 ± 0.067; State in solvent ([4]; Acetone): Insoluble; State in solvent ([4]; Acetonitrile): Insoluble; Concentration to form gel ([4]; EtOH): (11 wt %); State in solvent ([4]; EtOH): Gel; State in solvent ([4]; Ethylene glycol): Solution; State in solvent ([4]; Glycerol): Solution; Concentration to form gel ([4]; nBuOH): (11.3 wt %); State in solvent ([4]; nBuOH): Gel; Concentration to form gel ([4]; nPrOH): (9.8 wt %); State in solvent ([4]; nPrOH): Gel
c1ccc(C[n+]2ccn(Cc3ccc(C[n+]4ccn(Cc5ccc(C[n+]6ccn(Cc7ccccc7Cn7cc[n+](Cc8ccc(Cn9cc[n+](Cc%10ccc(Cn%11cc[n+](Cc%12ccccc%12)c%11)cc%10)c9)cc8)c7)c6)cc5)c4)cc3)c2)cc1 [IBN-1, reference compound] | – | – | – | – | – | – | 4 mg/L | 31 mg/L | – | – | – | – | – | 31 mg/L | 3 mg/L | not observed | 83.33% | 0.79 | >100000 ppm | 10.36 mg/L | Gel formation ([4]; any of the solvents): not able to form gels; killing within two minutes (E. coli [7]; E. coli (3×10^8 cells mL^−1), 32 ppm concentration of oligomer compounds): 83%
